Results reported in patent US8703698B2, “Compositions and methods for treating atherosclerosis” (The University of Chicago, priority 2003, dated 2014).

Assays:
[1] = system: [3H]-cholesterol-loaded J774 macrophages; experiment: In vivo cholesterol efflux to plasma in mice injected with [3H]-cholesterol-loaded J774 macrophages; conditions: for [3H]-cholesterol efflux as plasma radioactivity (dpm) (FIG. 1): intravenous liposomes containing 0.5 μM peptide, 24 hours after macrophages
Protocol: In these experiments, in vivo cholesterol export was determined in mice injected with J774 macrophages cholesterol-loaded with RBC membranes and [^3H]-cholesterol. Two hundred thousand macrophages in 100:1 PBS were injected into each mouse through the tail vein. At various time points thereafter, approximately 25:1 of blood were collected from the tail vein of each animal into heparinized capillary tubes. The tubes were then centrifuged for 5 minutes in an Adams Autocrit Centrifuge to separate red blood cells from plasma. Cholesterol efflux was determined by measuring the appearance of [^3H]-cholesterol in plasma by scintillation spectrometry. To study whether export of cholesterol from J774 cells to plasma was influenced by non-liposome formulated D-27mer peptide (SEQ ID NO:10), 24 hours after injection of cholesterol-loaded J774 macrophages into mice, the same animals received, by intravenous injection, 30 μg, 60 μg, 150 μg, 225 μg, 300 μg or 600 μg of D-27mer. All these amounts of D-peptides were dissolved in 100:l of phosphate buffered saline and injected through the tail vein of each animal.
Additional in vivo studies have also been conducted wherein mice were first injected intravenously with [^3H]cholesterol-laden macrophages and then injected 24 hours later with liposomes containing 0.5 μM of synthetic peptides corresponding to amino acid residues 1-20, 21-50, 51-80 or 74-103 of murine SAA2.1. Results from this study are depicted in FIG. 1. At time points indicated in the graph of FIG. 1, approximately 25 μl of blood were collected from the tail vein of each animal. The blood samples were centrifuged to separate the red blood cells from the plasma and the [^3H]-cholesterol in plasma was determined by scintillation counting. Results are mean±SEM of four determinations.
To determine cholesterol export in vivo, J774 macrophages were cholesterol-loaded with red blood cell membranes and [^3H]-cholesterol as described above. Cells were washed four times with PBS/BSA and then detached from the culture dishes. Five million cells in 200 μl DMEM were injected into control mice or inflamed mice through the tail vein. At various time points, approximately 25 μl of blood were collected from the tail vein of each animal into heparinized capillary tubes and then centrifuged for 5 minutes in an Adams Autocrit Centrifuge to separate red blood cells from plasma. Cholesterol efflux was determined by measuring the appearance of [^3H]-cholesterol in plasma by scintillation spectrometry.
J774 cells cultured in 6-well plates were enriched with cholesterol by incubating with red blood cell (RBC) membrane fragments (175:g as cholesterol) that had been previously labeled with 0.5:Ci/ml [^3H]-cholesterol at 37° C. for 24 hours in 0.2% bovine serum albumin (BSA). After loading with the labelled RBC membrane for 6 hours, cells were then washed with phosphate-buffered saline/BSA (PBS/BSA) three times followed by an 18 hour equilibration period during which monolayers were exposed to DMEM/BSA. To determine cholesterol export in vivo, J774 macrophages were cholesterol-loaded with RBC membranes and [^3H]-cholesterol as described previously above. Cells were washed four times with PBS/BSA and then detached from the culture dishes. Two hundred thousand cells in 100:l PBS were injected into mice through the tail vein. At various time points thereafter, approximately 25:l of blood were collected from the tail vein of each animal into heparinized capillary tubes. These tubes were then centrifuged for 5 minutes in an Adams Autocrit Centrifuge to separate red blood cells from plasma. Cholesterol efflux was determined by measuring the appearance of [^3H]-cholesterol in plasma by scintillation spectrometry. […]

[2] = system: ApoE knockout mice; experiment: Regression of aortic lesions in ApoE knockout mice on atherogenic diet; type: in vivo; conditions: for aortic lesions, area stained with Oil Red O, versus high fat diet controls (FIGS. 7A and 7B): liposomes intravenously once every four days for two weeks, 6 mg/kg, after four weeks atherogenic diet; for color of livers versus untreated mice: preliminary examination, ApoE knockout mice on atherogenic diet
Text: In regression experiments, ApoE knockout mice were placed on an atherogenic diet as described in Example 11 for four weeks, following which they were divided into two groups. One group continued on the diet for an additional two weeks. The other group continued on the diet for the same period but also received once every four days liposomes containing a peptide corresponding to amino acids 1-20 of murine SAA2.1 (SEQ ID NO:1; Group B of FIG. 7A and Group hf+p1 of FIG. 7B) or liposomes containing a peptide corresponding to amino acids 74-103 of murine SAA2.1 (SEQ ID NO:4; Group D of FIG. 7A and Group hf+p4 of FIG. 7B). The control group received high fat diet alone with no liposomes (Group A of FIG. 7A and Group high fat of FIG. 7B). An additional group was placed on a normal mouse chow diet (Group C of FIG. 7A and Group low fat of FIG. 7B). A further additional Group receiving liposomes containing a peptide corresponding to amino acids 1-20 of murine SAA2.1 (SEQ ID NO:1) and liposomes containing a peptide corresponding to amino acids 74-103 of murine SAA2.1 (SEQ ID NO:4) is depicted in FIG. 7B and is referred to as hf+p1+p4. FIG. 7B is inclusive of data present in FIG. 7A as well as data from a subsequent experiment performed under the same conditions. After the two weeks, the mice were killed and their aortas were dissected and stained with Oil Red O. Data of FIG. 7A depict the area stained with Oil Red O indicative of the actual lipid positive area as a percentage of the total aortic area viewed. Data of FIG. 7B depict the area stained with Oil Red O as a percentage relative to the high fat diet group (100%).
The efficacy of SAA2.1 peptides in regression of atherosclerosis was examined. The peptides tested included SEQ ID NO:1 and SEQ ID NO:4. The peptides were injected intravenously once every four (4) days during atherogenic induction for a period of 2 weeks (i.e. four doses at 6 mg/kg).
To determine if these peptides cause regression of atherosclerosis, the animals were placed on an atherogenic diet (Paigen's Atherogenic Rodent Diet: Purina 5015 with cocoa butter, cholesterol and cholic acid (CI3002, Research Diets, Inc.)) for […], following which they were divided into two groups of 5 animals each. One group continued on the diet for an additional two weeks. […]
To assess the effects of the peptides on aortic atherosclerosis, at the termination of the experiment, the aorta was removed from the animals and opened longitudinally. The endothelial surface was stained with Oil Red O and the area occupied by lipid was measured by image analysis. Furthermore, histological sections of aorta were prepared for microscopic analysis and total lipids were isolated to measure the quantity of cholesterol per wet weight of tissue. […]

Molecule | [3H]-cholesterol efflux as plasma radioactivity (dpm) (FIG. 1) [1] | aortic lesions, area stained with Oil Red O, versus high fat diet controls (FIGS. 7A and 7B) [2] | color of livers versus untreated mice [2] | cholesterol release from macrophages pretreated with protein liposomes and injected into un-inflamed mice ([1]; cholesterol-loaded macrophages pretreated with liposomes, injected intravenously) | radiolabeled cholesterol exported in the plasma (FIG. 15) ([1]; non-liposome formulated, in 100 μl PBS, intravenous, 15 μg/mouse peptide or 75 μg/mouse full length protein)
DTIADQEANRHGRSGKDPNYYRPPGLPDKY [SEQ ID NO:4, synthetic peptide, residues 74-103 of murine SAA2.1] | dramatically increased | showed regression of aortic lesions | more normal reddish color | – | –
GFFSFVHEAFQGAGDMWRAY [SEQ ID NO:1, synthetic peptide, residues 1-20 of murine SAA2.1] | dramatically increased | showed regression of aortic lesions | more normal reddish color | – | –
GFFSFVHEAFQGAGDMWRAYTDMKEANWKNSDKYFHARGNYDAAQRGPGGVWAAEKISD GREAFQEFFGRGHEDTIADQEANRHGRSGKDPNYYRPPGLPDKY (protein, listed as Mus musculis, full length murine serum amyloid A isoform 2.1 purified from acute phase plasma) GFFSFVHEAFQGAGDMWRAYTDMKEANWKNSDKYFHARGNYDAAQRGPGGVWAAEKISDGREAFQEFFGRGHEDTIADQEANRHGRSGKDPNYYRPPGLPDKY | – | – | – | recapitulated the major cholesterol releasing effect | exceeded the increase observed following administration of the D-27mer peptide
